Assays:
PC3 = experiment: MTT proliferation assay, PC3; format: cell-based
Experimental: (§1) Proliferation Assays. IC50 values were determined for each cell line. Cells were seeded in 96-well plates at an appropriate cell density as determined from growth kinetics analysis and cultured for 5 days in the absence and presence of the test compounds. Cell proliferation was assessed after the addition of 20 μl of 3-4,5 dimethylthiazol-2,5-diphenyl tetrazolium bromide (MTT, 5 mg/ml in PBS, Sigma) for 5 hrs at 37° C. according to manufacturer's instructions. IC50 values were calculated from semi-log plots of % of control proliferation on the y-axis against log dose on the x-axis.
(§2) Anti-proliferative Activity of Isoflavonoid Derivatives. IC50 values were determined for each cell line after 120 h of exposure.

DU145 = experiment: MTT proliferation assay, DU145; format: cell-based; settings: Homo sapiens, DU-145; Prostate, DU145, 120 h of exposure
Experimental: as §1, §2

CP70 = experiment: MTT proliferation assay, CP70; format: cell-based
Experimental: as §1, §2

CALU3 = experiment: MTT proliferation assay, CALU3; format: cell-based; settings: Homo sapiens, Calu-3; NSCLC, CALU3, 120 h of exposure
Experimental: as §1, §2

HepG2 = experiment: MTT proliferation assay, HepG2; format: cell-based, human; settings: Homo sapiens; Liver, HepG2, 120 h of exposure
Experimental: (§3) The human hepatocellular carcinoma lines HepG2 (HB-8065), SK-HEP-1 (HTB-52) and the normal human lung fibroblast line IMR-90 (CCL-186) were cultured in Minimum Essential Eagles Medium containing 2 mM L-glutamine, 2.2 g/L sodium bicarbonate, supplemented with 1 mM sodium pyruvate and 0.1 mM non-essential amino acids. The human hepatocellular carcinoma line JHH-1 (JCRB1062) was cultured in Williams E Medium (Invitrogen) containing 2.2 g/L sodium bicarbonate, supplemented with 2 mM L-glutamine. The hepatocellular carcinoma line HuH-7 (JCRB0403) was cultured in DMEM, supplemented with 2 mM L-glutamine.
as §1, §2

SK-Hep-1 = experiment: MTT proliferation assay, SK-Hep-1; format: cell-based, human; settings: Homo sapiens, SK-HEP1; Liver, SK-Hep-1, 120 h of exposure
Experimental: as §3, §1, §2

HuH-7 = experiment: MTT proliferation assay, HuH-7; format: cell-based, human; settings: Homo sapiens; Liver, HuH-7, 120 h of exposure
Experimental: as §3, §1, §2

4405 = experiment: MTT proliferation assay, 4405; format: cell-based; settings: Melanoma, 4405, 120 h of exposure
Experimental: as §1, §2

SKBR-3 = experiment: MTT proliferation assay, SKBR-3; format: cell-based, human
Experimental: The human colorectal adenocarcinoma line HCT-116 (CCL-247) and the human breast adenocarcinoma line SK-BR-3 (HTB-30) were cultured in McCoy's 5a Medium (Invitrogen) containing 1.5 mM L-glutamine and 2.2 g/L sodium bicarbonate. The human colorectal adenocarcinoma line SW620 (CCL-227) was cultured in Leibovitz's L-15 Medium (Invitrogen) containing 2.05 mM L-glutamine.
as §1, §2

[1] = tested on: A2780 ovarian cancer cells; experiment: Combination with carboplatin, proliferation of A2780 cells; format: cell-based
Experimental: In vitro toxicity in normal and cancer cells. Cells were seeded in 96-well plates at an appropriate cell density as determined from growth kinetics analysis. Depending on the plating efficiency and lag phase of individual cell lines, cells were allowed to plate down prior to drug exposure. Intra-experimental single agent controls were included to ensure IC50 values obtained for each cell line matched previous IC50 determinations. Four analogue concentrations were employed in each analysis. Analogue concentrations used in each assay were chosen based on IC50 values, which formed the top concentration of analogue used. Subsequent concentrations were chosen based on simple ½ or 1/10 dilutions of the top analogue concentration employed (i.e. 2, 1, 0.5, 0.25 μM). Nine 1/10 serial dilutions of chemotherapeutic were employed with the top chemotherapeutic concentration being 50 μM.
For combined analysis, analogue concentrations were held constant through 1/10 serial dilutions of chemotherapeutic in growth medium (top chemotherapeutic concentration employed was 50 μM). Combined cultures were cultured for 5 days.
The sequence of administration effect of each agent on chemotherapeutic IC50 values was assessed by exposing plated cells to a single agent in sequence for 24 hr. To assess the isoflavonoid derivative→chemotherapeutic sequence, plated cells were first exposed to the appropriate analogue concentrations and incubated at 37° C. for 24 hr. Cells were washed with growth medium and then exposed to the appropriate chemotherapeutic concentrations and incubated for 24 hr. Cells were then washed and incubated for a further 3 days. To assess the chemotherapeutic→isoflavonoid derivative sequence, the procedure was reversed.
Cell proliferation was assessed after the addition of 20 μl of 3-4,5 dimethylthiazol-2,5-diphenyl tetrazolium bromide (MTT, 2.5 mg/ml in PBS, Sigma) for 3-4 hrs at 37° C. according to manufacturer's instructions. IC50 values were calculated from semi-log plots of % of control proliferation on the y-axis against log dose on the x-axis.
3-D model analysis of the cytotoxic interaction between drug A and drug B enables the representation of predicted inhibitory effect of two drugs in combination in 3 dimensions to reveal actual regions of synergy or antagonism. The 3D synergy plots are based on a theory of “Theoretical Additivity” (TA or […]) as outlined by Kanzawa et al. Theoretical Additivity was calculated from the cytotoxicities of drug A and drug B as monotherapies using the following formula which assumes the drugs are mutually exclusive inhibitors: […]
The TA is calculated for each combination of drug concentrations and subtracted from the observed experimental effect for each combination to give a measurement of synergistic or enhanced action.
Combination index (CI) analysis, which employs the median-effect principle correlating drug dose to cytotoxicity, was also employed to assess synergy. The median-effect equation is utilized to calculate the dose of a drug that inhibits “x” percent of cells (Chou and Talalay, 1984). D=Dm[fa/(1−fa)]^1/m
In vitro Assessment of Combination of Optically Active Compound 31 and Carboplatin. Combination studies employed both 24 hr concurrent exposure, and 24 hr sequential exposure (racemic compound 32→Carboplatin) regimens. In both studies, four analogue concentrations (0.25, 0.5, 1 and 5 μM) were held constant against titrated carboplatin. When 1 and 5 μM of compound 32 was assessed in combination with the lowest concentration of carboplatin employed in this study (0.4 μM), no IC50 for carboplatin was achieved due the high levels of cell kill observed (30-40% of control).

IC50 (PC3; Homo sapiens, PC-3, 120 h, Prostate, PC3, 120 h of exposure): 150 to 500 nM
IC50 (PC3; Table 2, Prostate, PC3, 120 hrs of exposure): 150 to 500 nM
IC50 (DU145): 150 to 500 nM
IC50 (CALU3): 150 to 500 nM
IC50 (HepG2): 150 to 500 nM
IC50 (SK-Hep-1): 150 to 500 nM
IC50 (HuH-7): 150 to 500 nM
IC50 (SKBR-3; Homo sapiens, SK-BR-3, 120 h, Breast, SKBR-3, 120 h of exposure): ≤ 150 nM
IC50 (SKBR-3; Table 2, Breast, SKBR-3, 120 hrs of exposure): ≤ 150 nM
Structure (SMILES): Oc1ccc([C@H]2c3ccc(O)cc3OC[C@H]2c2ccc(O)cc2)cc1 [Compound 31, d-cis-3-(4-hydroxyphenyl)-4-(4-hydroxyphenyl)chroman-7-ol]
IC50 (CP70; 120 h, Ovarian, CP70, 120 h of exposure): 510 to 1500 nM
IC50 (CP70; Table 2, Ovarian, CP70, 120 hrs of exposure): 150 to 500 nM
IC50 4405: 150 to 500 nM
enhancement of the anti-cancer effect of carboplatin ([1]; 0.25 μM of compound, A2780, depending on exposure regimen (24 hr concurrent or sequential)): 7-11 fold
potency of the inhibition of proliferation compared with compound 34 ([1]; 0.5 μM of compound in combination with carboplatin, A2780): superior
compound concentration giving maximal activity enhancement with carboplatin ([1]; 3D method of Kanzawa, 12.5 μM carboplatin, A2780): 0.25 µM
activity enhancement in combination with carboplatin ([1]; A2780 cell line, 31 compared with compound 32): superior in its ability to augment carboplatin toxicity
retardation of A2780 cell proliferation compared with compound 34 ([1]; sequential exposure (24 h), 0.25 μM of compound followed by carboplatin): superior retardation of A2780 cell proliferation
